# According to publication PMC11259170, “Small-molecule probe for IBD risk variant GPR65 I231L alters cytokine signaling networks through positive allosteric modulation” (Science Advances, 2024):
# Like-named read-outs stand apart in the source and are kept apart here.
# Assays:
# [1] = test system: GFP-expressing HeLa cells; assay: cAMP detection in HeLa expression cell line, GFP control; type: cell-based, human; conditions: Homo sapiens, HeLa, 2nd GFP column pair, NA = no activity
# Summary of the method: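 HeLa cells stably expressing C-terminally V5-tagged receptor or GFP (lentiviral, puromycin 3 μg/ml) stimulated at 1500 cells per well for 30 min at RT with compound (10 mM DMSO stock) in stimulation buffer at pH 7.2. cAMP detected by Lance Ultra TR-FRET after lysis and 1 h detection, excitation 337 nm, emission 620/665 nm.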
# [2] = Solubility remark in the Comments column of the SAR table; type: physicochemical
# From the text: Supplement sciadv.adn2339_data_s1_to_s4.zip/sciadv.adn2339_data_s2.xlsx, sheet "SAR cAMP Assay"
# hGPR65 [3] = target: T1, hGPR65 (Homo sapiens, UniProt Q8IYL9); assay: cAMP detection in HeLa expression cell line, hGPR65; type: cell-based; conditions: for Emax: HeLa, relative to 100uM forskolin (100%) and DMSO (0%), read-out: hGPR Max Activity %
# T1 construct: expressed in transfected cells; host or cells: HeLa (ATCC CCL-2), lentiviral transduction, pLX317
# Summary of the method: (§1)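 Lentivirally transduced HeLa, V5-tagged GPCR, puromycin 3 μg/ml. 1500 cells/well, stimulation buffer pH 7.2, compound (10 mM DMSO stock), 30 min RT. Lyse, detection reagents 1 h dark RT. TR-FRET cAMP kit, ex 337, em 620/665.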
# mGPR65 = target: T2, mGPR65 (Mus musculus, UniProt Q61038); assay: cAMP detection in HeLa expression cell line, mGPR65; type: cell-based; conditions: for Emax: HeLa, relative to 100uM forskolin (100%) and DMSO (0%), read-out: mGPR Max Activity %
# T2 construct: expressed in transfected cells; host or cells: HeLa (ATCC CCL-2), lentiviral transduction, pLX317
# Summary of the method: as §1
# human GPR4 (hGPR4) = target: T3, human GPR4 (hGPR4) (Homo sapiens, UniProt P46093); assay: cAMP detection in HeLa expression cell line, hGPR4; type: cell-based; conditions: highest concentration tested
# T3 construct: expressed in transfected cells; host or cells: HeLa (ATCC CCL-2), lentiviral transduction, pLX317
# Procedure: HeLa stable expression cell lines were produced by lentiviral transduction. Briefly, lentiviral plasmids for each GPCR with a C-terminal V5 Tag ([…]) were made in a pLX317 backbone using competent Escherichia coli (New England Biolabs, C3050H). Lenti-X 293 T (Takara, 632810) cells were transfected with the lentiviral plasmids to produce virus. Low-passage HeLa cells (American Type Culture Collection, CCL-2) were then transduced with lentivirus. After 48 hours, HeLa cells were cultured under selection with puromycin (3 μg/ml) and allowed to recover and expand before storing stocks in liquid nitrogen.
# cAMP was measured in cells using the Lance Ultra cAMP Kit. HeLa cells were cultured under puromycin (3 μg/ml) selection. One day before the experiment, cells were seeded in T75 flasks and allowed to adhere overnight. On the day of the experiment, cells were washed twice with Dulbecco’s PBS and lifted using prewarmed 1× versene solution (Gibco, 15040066). Cells were counted in HBSS (Gibco, 14025092) and then resuspended in stimulation buffer prepared according to the manufacturer’s instructions and adjusted to pH 7.2 using 1 M sodium hydroxide. Cells were added to the plate at a density of 1500 cells per well in white opaque 384-well assay ready microplates containing 100 nl of 10 mM compound in DMSO. Cells were stimulated for 30 min at RT, then lysed and incubated with detection reagents for 1 hour in the dark at RT. Plates were read on BMG Labtech PHERAstar FSX (excitation, 337 nm; emission, 620 and 665 nm). Data analysis was performed using GraphPad Prism.
# hGPR65 [4] = target: T1, hGPR65; assay: cAMP detection (Lance Ultra), GPR65 KO HeLa reconstituted with hGPR65; 21K screen dose confirmation; type: cell-based; conditions: primary hit validation
# Lipophilicity (logD) = type: physicochemical; conditions: pH 7.4; pH7.4; read-out: LogD (pH7.4)
# hGPR65 [5] = target: T1, hGPR65; assay: cAMP detection (Lance Ultra), GPR65 KO HeLa reconstituted with hGPR65; 21K screen dose confirmation; type: cell-based
# human PBMCs = assay: cAMP detection in human PBMCs; type: cell-based; conditions: 0 to 50 μM, 30 min, pH 7.2
# Procedure: Human blood samples were collected from healthy donors at the Blood Donor Center at Massachusetts General Hospital in compliance with all relevant ethical regulations and according to protocol 2018P001504 approved by the Mass General Brigham Institutional Review Board. Donors provided informed written consent. Human PBMCs were isolated by density gradient separation using Ficoll-Paque PLUS (VWR- GE Life Sciences, catalog no. 17144002), as previously described ([54]). Isolated PBMCs were incubated overnight in DMEM (10% FBS, 0.2% sodium bicarbonate, 1X Glutamax) at 37°C, 5% CO2. Human monocytes were isolated from an unpurified Buffy Coat using RosetteSep human monocyte enrichment cocktail (StemCell Technologies, 15068) and frozen same day in FBS with 10% DMSO.
# cAMP was measured in cells using the Lance Ultra cAMP Kit. Compound dose curves were prepared in an assay buffer, which was made according to the manufacturer’s guidelines using DMEM instead of HBSS. Assay buffer was adjusted to desired pH using 1 M HCl or NaOH. PBMCs were collected, centrifuged, and resuspended in assay buffer. Dose curves and cells were added to a white opaque OptiPlate (PerkinElmer, 6007290) at a density of 20,000 cells per well. […] Eu-cAMP tracer and FRET emissions were read using a PerkinElmer EnVision Multimode plate reader (ENVISION21040010). […]
# [6] = test system: GPR65 KO HeLa cells + pLX empty vector; assay: cAMP detection, GPR65 KO HeLa + empty pLX vector (null control); type: cell-based, human
# Summary of the method: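 CRISPR GPR65-KO HeLa cells, lentivirally reconstituted with hGPR65, mGPR65 or empty vector, were treated at 5000 cells/well in HBSS/Hepes with 0.5 mM IBMX at pH 7.1. Compounds were tested at 25 μM (primary screen) or 195 nM–100 μM (dose curves) for 30 min at RT. cAMP was read by Lance Ultra TR-FRET (665/615 nm) after 1 hour.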
# [7] = Solubility in phosphate buffer; type: physicochemical; conditions: read-out: Solubility
# [8] = 1st hGPR column pair, NA = no activity
# [9] = 2nd hGPR column pair, NA = no activity
# [10] = 2nd mGPR column pair, NA = no activity
# T1 sequence (Q8IYL9 whole entry): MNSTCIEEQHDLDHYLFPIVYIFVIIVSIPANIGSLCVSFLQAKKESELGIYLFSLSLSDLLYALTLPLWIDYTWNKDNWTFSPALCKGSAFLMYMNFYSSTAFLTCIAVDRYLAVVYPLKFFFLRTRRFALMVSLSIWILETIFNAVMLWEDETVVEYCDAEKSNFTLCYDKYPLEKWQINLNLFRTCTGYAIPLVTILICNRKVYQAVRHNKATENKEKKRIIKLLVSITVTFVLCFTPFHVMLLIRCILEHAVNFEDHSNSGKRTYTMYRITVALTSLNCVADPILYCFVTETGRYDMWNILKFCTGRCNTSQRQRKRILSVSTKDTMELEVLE
# T2 sequence (Q61038 whole entry): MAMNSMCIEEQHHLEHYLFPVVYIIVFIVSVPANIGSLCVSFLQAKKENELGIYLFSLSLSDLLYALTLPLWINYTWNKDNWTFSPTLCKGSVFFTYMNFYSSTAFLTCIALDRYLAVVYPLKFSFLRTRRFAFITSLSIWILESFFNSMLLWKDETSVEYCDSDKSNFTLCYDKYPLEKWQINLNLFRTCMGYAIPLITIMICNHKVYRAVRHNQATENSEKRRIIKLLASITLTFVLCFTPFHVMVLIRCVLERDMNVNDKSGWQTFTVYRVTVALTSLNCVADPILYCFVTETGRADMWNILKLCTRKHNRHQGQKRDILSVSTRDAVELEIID
# T3 sequence (P46093 whole entry): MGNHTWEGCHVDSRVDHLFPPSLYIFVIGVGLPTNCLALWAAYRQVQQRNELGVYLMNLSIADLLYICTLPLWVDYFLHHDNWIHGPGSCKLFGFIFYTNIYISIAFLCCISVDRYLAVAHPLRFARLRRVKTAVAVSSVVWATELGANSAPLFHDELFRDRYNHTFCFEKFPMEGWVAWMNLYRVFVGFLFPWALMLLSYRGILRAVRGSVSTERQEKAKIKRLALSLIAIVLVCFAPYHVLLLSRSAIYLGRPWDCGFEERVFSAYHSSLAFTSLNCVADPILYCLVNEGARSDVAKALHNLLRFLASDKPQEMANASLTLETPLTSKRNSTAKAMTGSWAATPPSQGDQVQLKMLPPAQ
compound,measurement,setting,value
Cc1ccc(NC(=O)c2cnn3c(O)cc(-c4ccc(-c5ccccc5C(C)C)cc4)nc23)cc1 [BRD4665],EC50,[1],26400 nM
same,Emax,"[1]; relative to 100uM forskolin (100%) and DMSO (0%), read-out: GFP Max Activity %",12%
same,Comments (solubility),[2],Poor solubility.
same,EC50,"hGPR65 [3]; 1st hGPR column pair, NA = no activity, read-out: hGPR EC50",0.227 µM
same,EC50,"hGPR65 [3]; 2nd hGPR column pair, NA = no activity, read-out: hGPR EC50",0.152 µM
same,Emax,hGPR65 [3]; [8],76.3%
same,Emax,hGPR65 [3]; [9],79.6%
same,EC50,"mGPR65; 1st mGPR column pair, NA = no activity, read-out: mGPR EC50",0.787 µM
same,EC50,"mGPR65; 2nd mGPR column pair, NA = no activity, read-out: mGPR EC50",0.627 µM
same,Emax,mGPR65; [10],33.2%
same,Emax,mGPR65; NA = no activity,34.9%
"COCc1ccc(-c2cc(O)n3ncc(C(=O)Nc4ccc(C)cc4)c3n2)cc1 [BRD2813, COCc1ccc(cc1)-c1cc(O)n2ncc(C(=O)Nc3ccc(C)cc3)c2n1]",cAMP relative to DMSO in the hGPR4 cells,human GPR4 (hGPR4),decrease in cAMP
same,cAMP activity in hGPR65-expressing cells,hGPR65 [4],dose-dependent activity
same,Emax,hGPR65 [3]; [8],78.8%
same,Emax,hGPR65 [3]; [9],79.2%
same,EC50,"hGPR65 [3]; hGPR EC50 (uM), NA = no activity",0.866 µM
same,EC50,"hGPR65 [3]; hGPR EC50 (uM), pH 7.2, 30 min",1.2 µM
same,EC50,"hGPR65 [3]; hGPR EC50, NA = no activity",0.993 µM
same,EC50,"hGPR65 [3]; hGPR EC50, pH 7.2, 30 min",0.724 µM
same,logD,Lipophilicity (logD),> 4.65
same,pH of greatest compound effect,"hGPR65 [5]; 0-50 μM, pH curves",between pH 7.1 and 7.3
same,"cAMP response, BRD2813 compared with BTB09089","hGPR65 [5]; 0 to 50 μM, pH 7.2",greater cAMP response
same,shift in the pH response curve of GPR65,"hGPR65 [5]; increasing concentrations, 0 to 50 μM",leftward shift
same,Emax,mGPR65; [10],39.6%
same,Emax,mGPR65; NA = no activity,35.8%
same,EC50,"mGPR65; mGPR EC50 (uM), first pair of columns, pH 7.2, 30 min",0.942 µM
same,EC50,"mGPR65; mGPR EC50 (uM), second pair of columns, pH 7.2, 30 min",0.406 µM
same,EC50,"mGPR65; mGPR EC50 (uM), NA = no activity",0.693 µM
same,"cAMP production in human PBMCs, compared",human PBMCs,outperformed BTB09089
same,EC50,"[6]; Homo sapiens, 0.5 h, HeLa GPR65 KO + pLX, pH 7.1, 30 min, normalized to DMSO and 100 μM forskolin",> 100000 nM
same,cAMP production in control cells,[6]; primary hit validation,without inducing cAMP production
same,solubility,[7],< 1.56 µM
